# Experimental data taken from patent US20040229791A1, “Compositions and methods of modulating TGF-beta activity by fatty acids” (priority 2002, published 2004).
# Molecular target: T1, TGF-β1-α2M* complex (Homo sapiens, UniProt P01023)
# T1 construct: was purified from pooled citrate-treate human plasma; from tissue; host or cells: pooled citrate-treated human plasma
# T1 sequence (P01023 24-1474): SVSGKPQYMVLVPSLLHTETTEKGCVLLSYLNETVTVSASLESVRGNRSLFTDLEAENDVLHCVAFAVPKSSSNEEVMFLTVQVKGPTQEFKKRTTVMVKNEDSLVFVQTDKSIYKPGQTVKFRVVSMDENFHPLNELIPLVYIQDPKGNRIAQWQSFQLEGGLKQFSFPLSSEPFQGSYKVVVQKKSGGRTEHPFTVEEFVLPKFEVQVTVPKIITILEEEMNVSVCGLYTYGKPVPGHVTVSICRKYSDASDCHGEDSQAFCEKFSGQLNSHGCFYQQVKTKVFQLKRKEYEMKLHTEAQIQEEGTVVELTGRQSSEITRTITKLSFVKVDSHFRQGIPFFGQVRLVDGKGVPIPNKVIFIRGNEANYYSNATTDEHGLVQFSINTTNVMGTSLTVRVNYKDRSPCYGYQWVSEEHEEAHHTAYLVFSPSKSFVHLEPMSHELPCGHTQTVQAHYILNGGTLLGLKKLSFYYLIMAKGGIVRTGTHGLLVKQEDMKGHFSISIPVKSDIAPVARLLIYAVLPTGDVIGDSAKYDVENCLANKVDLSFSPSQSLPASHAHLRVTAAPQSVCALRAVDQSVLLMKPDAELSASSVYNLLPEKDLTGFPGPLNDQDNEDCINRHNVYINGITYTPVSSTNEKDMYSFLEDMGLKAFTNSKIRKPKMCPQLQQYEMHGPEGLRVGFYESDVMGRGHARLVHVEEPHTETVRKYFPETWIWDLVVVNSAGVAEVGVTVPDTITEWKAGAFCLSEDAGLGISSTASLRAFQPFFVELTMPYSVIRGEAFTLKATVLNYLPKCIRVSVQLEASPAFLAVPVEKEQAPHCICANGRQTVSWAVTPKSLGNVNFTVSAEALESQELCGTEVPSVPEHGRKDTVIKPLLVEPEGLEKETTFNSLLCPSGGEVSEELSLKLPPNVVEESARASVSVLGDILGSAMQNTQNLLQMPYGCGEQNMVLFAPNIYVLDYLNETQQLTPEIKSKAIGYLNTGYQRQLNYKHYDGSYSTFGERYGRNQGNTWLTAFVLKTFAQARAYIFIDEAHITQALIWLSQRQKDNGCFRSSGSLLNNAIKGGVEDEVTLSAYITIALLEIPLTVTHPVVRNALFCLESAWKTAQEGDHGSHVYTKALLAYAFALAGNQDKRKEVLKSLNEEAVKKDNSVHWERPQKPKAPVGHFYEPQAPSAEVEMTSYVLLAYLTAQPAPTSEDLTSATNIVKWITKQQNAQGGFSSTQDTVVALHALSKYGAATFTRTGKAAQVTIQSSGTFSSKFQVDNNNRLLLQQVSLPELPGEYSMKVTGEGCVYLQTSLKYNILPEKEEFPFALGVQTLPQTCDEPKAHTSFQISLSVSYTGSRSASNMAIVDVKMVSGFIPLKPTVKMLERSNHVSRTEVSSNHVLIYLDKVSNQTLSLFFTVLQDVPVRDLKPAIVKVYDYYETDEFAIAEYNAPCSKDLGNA
# Assay: Inhibition of 125I-TGF-β1 and α2M* complex formation (5% non-denaturing PAGE, autoradiography)
# Type: binding
# Protocol: Saturated and unsaturated fatty acids are present in plasma and tissues (25,26). The effects of various concentrations of saturated fatty acids on the formation of complexes between ^125I-TGF ? β1 and ? 2M* were examined. ^125I-TGF- ? 1 (1 nM) was incubated μg/ml) in the presence of various concentrations of n-caprylic acid ([…]), lauric acid (12 carbon atoms), myristic acid (14 carbon atoms), palmitic acid (16 carbon atoms) and stearic acid (18 carbon atoms). After 30 min at room temperature, the reaction mixture was analyzed by 5% non-denaturing PAGE and autoradiography, a standard method form determining complex formation between TGF-β and α2M* (12). […] At 100 μM, it inhibited 20% of the complex formation between TGF ? β1 and α2M*. Esterification consistently abolished the inhibitory activities of the fatty acids.
# Complex formation of ^125I-TGF-β and ? 2M*—The reaction mixture contained 10 μg of . α2M*, ˜1 nM of ^125I-TGF- ? 1, ^125I-TGF ? β2 or ^125I-TGF ? acids (dissolved in 100% ethanol) in 0.05 ml of 50 mM HEPES-NaOH buffer, pH 7.4. The final concentration of ethanol in the reaction mixture was 0.5%. These fatty acids and fatty acid derivatives were soluble under the experimental conditions. After 30 min at room temperature, the complex formation of ^125I-TGF- ? and. α2M* was determined by 5% non-denaturing polyacrylamide gel electrophoresis (PAGE) or by 7.5% SDS-PAGE following cross-linking by 0.6 mM DSS. After electrophoresis, the gel was stained with Coomassie blue and analyzed by autoradiography. The ^125I-TGF- ? - ? 2M* complex which co-migrated with free ? 2M* was quantified using a PhosphoImager (Fuji).
compound,measurement,setting,value
CCCCCCCC(=O)O [n-caprylic acid],inhibitory activity on complex formation of 125I-TGF-β1 and α2M*,,relatively weak inhibitor
same,inhibition of the complex formation between TGF-β1 and α2M*,at 100 μM,20%
